# Measurements from patent US20030220254A1, “Composition and method for preparation of an oral dual controlled release formulation of a protein and inhibitor” (TEXAS TECH UNIVERSITY SYSTEM, priority 2002, published 2003).
# Experiments:
# Caco-2 cell homogenate = assay: Stability of sCT in Caco-2 cell homogenate; assay type: in vitro ADME, Human; details: Caco-2 homogenate, sCT 50 μM
# Protocol: Human colon adenocarcinoma (Caco-2) cells were cultured, in an atmosphere of 5% CO2 at 37° C. in T-75 tissue culture flasks using DMEM supplemented with 10% FBS, 100 U/ml penicillin, 100 μg/ml streptomycin, 1.25 ml human Transferrin. The medium was changed every other day until the flasks reached 90% confluence (3-4 days). Caco-2 cells of less than 20 passages were used. Caco-2 homogenate was prepared according to the method of Augustijns et al. with slight modification. Briefly, the Caco-2 monolayer was washed three times with ice-cold PBS (pH 7.4). The cells were scraped off with a tissue culture scraper on ice and homogenized in 1 ml ice-cold PBS using a mechanical homogenizer. The mixture was centrifuged at 12,000 rpm for 10 min at 4° C. The resultant supernatant was used as Caco-2 homogenate. The protein content was determined using BCA assay. Tryspin and chymotrypsin assay was done for the homogenate as described below.
# (§1) The degradation of sCT was studied by incubating the sCT solution to a final concentration of 50 μM with 900 μl Caco-2 cell and goat intestinal homogenates. The samples were withdrawn at 0 and 60 min and were diluted immediately with cold TFA 1%. The samples containing intestinal homogenate were centrifuged at 5000 g for 10 min to remove precipitated proteins. The supernatant was injected into HPLC to determine the sCT content.
# α-chymotrypsin = α-chymotrypsin (Bos taurus, UniProt P00766); assay: Stability of sCT in the presence of α-chymotrypsin and protease inhibitors; assay type: biochemical; design: half-life: dose or concentration left out as unconfirmed; details: no inhibitor
# Protocol: (§2) sCT solutions (50 μM) were incubated at 37° C. in 50 mM Tris buffer containing 0.1 mM calcium chloride (pH 8.0). Degradation profiles generated in the presence of 0.5 μM trypsin and 0.1 μM α-chymotrypsin served as controls. The concentrations were selected on the basis of a reported study (Schilling R. J. and Mitra A. K. 1991). DkOVM and TkOVM were evaluated at different enzyme-to-inhibitor ratios to evaluate their inhibition of sCT degradation. CkOVM and aprotinin were used at 1:1 enzyme-to-inhibitor ratio in order to compare the efficacy of various protease inhibitors used. sCT and enzyme solutions were incubated for 15 min at 37° C. before starting the experiments. Samples were taken after 0, 5, 15, 30 and 60 min and immediately diluted with cold 1% trifluoroacetic acid (TFA) to reduce the pH to 2.5. The samples were analysed at 4° C. by HPLC given below. Plots of sCT remaining against time were generated. 160 values (amount of sCT (%) remaining after 60 min) were used to compare the efficacy of the ovomucoids. Similar studies were performed with aprotinin. The study was also conducted by incubating 50 μM sCT solutions with 0.5 μM trypsin and 0.1 μM α-chymotrypsin added together and the efficacy of TkOVM was evaluated at various ratios.
# (§3) sCT was analyzed by means of our validated HPLC method (Shah R B, et al., 2003). Briefly, a computer controlled Varian Chromatography workstation consisting of the following components was used: Two Dynamax SD-200 pumps, an AI-200A autosampler fitted with a 100 μl injection loop, a Dynamax UV-1 detector and Star 5.3 chromatography software. Room temperature was maintained for the column and chromatographic separations were carried out on a C-18 Vydac 218MS54 column (5 μm, 4.6×250 mm) with a pore size of 300 Å. 50 μl of samples were injected into the column which were analyzed by the reversed phase HPLC method. The mobile phase consisted of 0.05% v/v TFA-Water (A) and 0.05% v/v TFA-Acetonitrile (B). The gradient conditions were 20-35% B for 10 min, 35-37% B from 10th to 20th min and 37-20% B from 20th to 25th min at a flow rate of 1 ml/min. […] Concentrations of sCT were quantified from integrated peak areas and calculated by interpolation from an according standard curve.
# in vitro = in vitro ADME; details: goat, real gastrointestinal fluid or homogenate, pH 7.4
# Protocol: Goat intestinal homogenate was prepared using a reported method for preparation of intestinal homogenate with minor modifications (Yamamoto et al., 1990). Briefly, fresh goat intestinal tissues, obtained from a local slaughter house, were washed with phosphate buffered saline (PBS) pH 7.4 at 4° C. and stored at −80° C. Immediately before each experiment, specimens were thawed at room temperature and then were washed again with PBS at 4° C. 25 g of tissue was cut from the small intestinal region and was homogenized in 10 ml PBS at 4° C. by use of a mechanical homogenizer for 5 min. The homogenate was centrifuged at 5000 g in a refrigerated (4° C.) centrifuge for 10 min to remove cellular and nuclear debris. The resulting supernatant was assayed for protein content by BCA assay with bovine serum albumin as the standard. The supernatant was also assayed for trypsin and chymotrypsin content.
# as §1
# [1] = tested on: trypsin and α-chymotrypsin; assay: Stability of sCT with trypsin and α-chymotrypsin added together, with TkOVM; assay type: biochemical; details: pH 8, no inhibitor, read-out: Half-life (min) of hydrolysis of sCT
# Protocol: as §2, with “Plots of sCT remaining against time were generated. 160 values (amount of sCT (%) remaining after 60 min) were used to compare the efficacy of the ovomucoids. Similar studies were performed with aprotinin.” left out
# sCT was analyzed by means of our validated HPLC method (Shah R B, et al., 2003). […] 50 μl of samples were injected into the column which were analyzed by the reversed phase HPLC method. […] Concentrations of sCT were quantified from integrated peak areas and calculated by interpolation from an according standard curve.
# trypsin = biological target: T1, trypsin (Bos taurus, UniProt P00760); assay: Stability of sCT in the presence of trypsin and protease inhibitors; assay type: biochemical; design: half-life: dose or concentration left out as unconfirmed
# T1 construct: gene PRSS1
# T1 sequence (P00760 24-246): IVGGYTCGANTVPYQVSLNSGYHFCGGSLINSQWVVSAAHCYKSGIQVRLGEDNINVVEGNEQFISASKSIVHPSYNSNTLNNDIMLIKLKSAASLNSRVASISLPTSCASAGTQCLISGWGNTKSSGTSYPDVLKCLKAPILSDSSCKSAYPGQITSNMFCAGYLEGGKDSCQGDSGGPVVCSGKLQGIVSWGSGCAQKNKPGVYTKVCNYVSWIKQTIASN
# Protocol: as §2, §3
structure (smiles),measurement,setting,value
"CC(C)C[C@H](NC(=O)[C@H](CCCCN)NC(=O)CNC(=O)[C@H](CC(C)C)NC(=O)[C@@H](NC(=O)[C@@H]1CSSC[C@H](N)C(=O)N[C@@H](CO)C(=O)N[C@@H](CC(N)=O)C(=O)N[C@@H](CC(C)C)C(=O)N[C@@H](CO)C(=O)N[C@@H]([C@@H](C)O)C(=O)N1)C(C)C)C(=O)N[C@@H](CO)C(=O)N[C@@H](CCC(N)=O)C(=O)N[C@@H](CCC(=O)O)C(=O)N[C@@H](CC(C)C)C(=O)N[C@@H](Cc1c[nH]cn1)C(=O)N[C@@H](CCCCN)C(=O)N[C@@H](CC(C)C)C(=O)N[C@@H](CCC(N)=O)C(=O)N[C@H](C(=O)N[C@@H](Cc1ccc(O)cc1)C(=O)N1CCC[C@H]1C(=O)N[C@@H](CCCNC(=N)N)C(=O)N[C@H](C(=O)N[C@@H](CC(N)=O)C(=O)N[C@H](C(=O)NCC(=O)N[C@@H](CO)C(=O)NCC(=O)N[C@H](C(=O)N1CCC[C@H]1C(N)=O)[C@@H](C)O)[C@@H](C)O)[C@@H](C)O)[C@@H](C)O [sCT, salmon calcitonin]",Amount (%) of sCT remaining at 60 min (I60),Caco-2 cell homogenate,81.46 ± 10.89%
same,Amount (%) of sCT remaining at 60 min (I60),α-chymotrypsin; chymotrypsin 0.1 μM,16.18 ± 0.48%
same,half-life,"α-chymotrypsin; pH 8, α-chymotrypsin, read-out: Half-life (min) of hydrolysis of sCT",22.4 min
same,"remaining at 1 h, 50 μM",in vitro,91.7 ± 17.6%
same,half-life at 50 μM,[1],0.77 min
same,Amount (%) of sCT remaining at 60 min (I60),"trypsin; control, sCT 50 μM without enzyme",103.76 ± 3.10%
same,half-life,"trypsin; pH 8, trypsin, no inhibitor, read-out: Half-life (min) of hydrolysis of sCT",1.51 min
same,Amount (%) of sCT remaining at 60 min (I60),"trypsin; trypsin 0.5 μM, no inhibitor",0.00 ± 0.00%
